# From patent US7968561B2, “Steroidal compounds as steroid sulphatase inhibitors” (Sterix Limited, priority 2006, dated 2011)
# What was measured:
# E1-STS [1] = target: T1, E1-STS (Homo sapiens, UniProt P08842); parameters: dose or concentration left out as unconfirmed; settings: intact MCF-7 cells; cited from earlier work
# T1 construct: endogenous in cells; host or cells: intact MCF-7 cells
# T1 sequence (P08842 22-583): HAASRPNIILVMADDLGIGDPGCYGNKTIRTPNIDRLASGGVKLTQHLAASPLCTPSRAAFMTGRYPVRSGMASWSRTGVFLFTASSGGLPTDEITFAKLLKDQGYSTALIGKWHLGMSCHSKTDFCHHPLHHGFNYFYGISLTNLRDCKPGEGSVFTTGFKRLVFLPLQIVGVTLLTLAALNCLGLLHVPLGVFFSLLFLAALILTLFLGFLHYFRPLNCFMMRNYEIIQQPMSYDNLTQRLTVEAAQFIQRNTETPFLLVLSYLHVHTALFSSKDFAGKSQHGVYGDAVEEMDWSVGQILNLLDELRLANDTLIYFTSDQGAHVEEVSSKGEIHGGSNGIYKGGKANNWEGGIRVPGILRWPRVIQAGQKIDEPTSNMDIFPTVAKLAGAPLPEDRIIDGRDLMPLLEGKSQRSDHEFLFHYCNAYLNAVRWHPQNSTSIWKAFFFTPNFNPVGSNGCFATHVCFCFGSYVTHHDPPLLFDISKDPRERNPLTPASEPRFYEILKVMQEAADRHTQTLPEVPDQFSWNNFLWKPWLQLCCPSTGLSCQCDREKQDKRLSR
# E1-STS [2] = target: T2, E1-STS (Rattus norvegicus, UniProt P15589); settings: administered orally or subcutaneously; cited from earlier work
# T2 construct: host or cells: rat liver
# T2 sequence (P15589 20-577): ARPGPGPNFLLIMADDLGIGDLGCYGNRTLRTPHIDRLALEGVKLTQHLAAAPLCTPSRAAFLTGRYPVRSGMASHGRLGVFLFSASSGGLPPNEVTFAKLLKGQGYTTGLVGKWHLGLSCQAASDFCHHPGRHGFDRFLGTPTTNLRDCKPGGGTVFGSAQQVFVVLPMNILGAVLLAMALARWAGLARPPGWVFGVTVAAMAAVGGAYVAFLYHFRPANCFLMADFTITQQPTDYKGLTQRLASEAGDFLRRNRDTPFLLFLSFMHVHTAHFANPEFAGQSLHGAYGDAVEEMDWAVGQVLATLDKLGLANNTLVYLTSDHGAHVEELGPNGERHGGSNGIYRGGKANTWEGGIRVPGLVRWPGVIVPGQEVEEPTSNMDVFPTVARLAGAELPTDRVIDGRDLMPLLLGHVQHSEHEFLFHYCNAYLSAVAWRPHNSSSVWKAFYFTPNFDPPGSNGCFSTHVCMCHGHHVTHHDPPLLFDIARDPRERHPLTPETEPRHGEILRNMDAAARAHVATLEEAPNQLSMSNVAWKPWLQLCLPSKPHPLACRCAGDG
# [3] = target: T3, dehydroepiandrosterone sulphatase (DHA-STS) (Rattus norvegicus, UniProt P15589); settings: administered orally or subcutaneously; cited from earlier work
# T3 construct: host or cells: rat liver
# T3 sequence (P15589 20-577): T2 sequence (P15589 20-577)
# [4] = rats; cited from earlier work
# steroid sulphatase (STS) = target: T4, steroid sulphatase (STS) (Homo sapiens, UniProt P08842); assay: IC50 for steroid sulphatase inhibition measured in JEG-3 cells; assay type: cell-based
# T4 construct: endogenous in cells; host or cells: JEG-3 cells
# T4 sequence (P08842 22-583): T1 sequence (P08842 22-583)
# STS [5] = target: T5, STS (Rattus norvegicus, UniProt P15589); assay: STS activity in rat livers 15 days after a single p.o. dose; assay type: in vivo; settings: rat liver
# T5 construct: from tissue; host or cells: rat liver
# T5 sequence (P15589 20-577): T2 sequence (P15589 20-577)
# [6] = system: MCF-7STS cells (MCF-7 cells over expressing STS); assay: Growth of E2S-stimulated MCF-7STS xenograft tumours in nude mice; assay type: in vivo; settings: Study 2: 1 mg/kg p.o. once per week for 7 weeks
# Method: Ovariectomised, athymic female MF-1 nude mice (nu/nu) (age 6-8 weeks) were obtained from Harlan Olac. Twenty four hours before the inoculation of MCF-7STS cells animals were injected s.c. with estradiol sulphate (E2S). On the day of inoculation 5×10^6 MCF-7STS cells (50 μl in Matrigel) were injected s.c. into the right flank of the mice. After cell inoculation mice were injected with E2S (100 μg/50 μl) and received another injection of these steroids 24 h later. Mice then received E2S 3 times per week until the end of the study. […] Tumour measurements and the weight of animals were recorded weekly. Samples of tumour and liver tissues together with blood were collected at a number of time points after the cessation of dosing.
# Tumours were measured weekly and their volumes calculated using the equation length×width^2/2.
# Student's t test was used to assess the significance of the differences in tumour volumes for the different groups.
# STS [7] = target: T6, STS (Mus musculus, UniProt P50427); assay: Liver STS activity in MCF-7STS xenograft mice; assay type: in vivo; settings: Study 2: 1 mg/kg p.o. once per week
# T6 construct: from tissue; host or cells: liver of MF-1 nude mice, homogenate
# T6 sequence (P50427 23-624): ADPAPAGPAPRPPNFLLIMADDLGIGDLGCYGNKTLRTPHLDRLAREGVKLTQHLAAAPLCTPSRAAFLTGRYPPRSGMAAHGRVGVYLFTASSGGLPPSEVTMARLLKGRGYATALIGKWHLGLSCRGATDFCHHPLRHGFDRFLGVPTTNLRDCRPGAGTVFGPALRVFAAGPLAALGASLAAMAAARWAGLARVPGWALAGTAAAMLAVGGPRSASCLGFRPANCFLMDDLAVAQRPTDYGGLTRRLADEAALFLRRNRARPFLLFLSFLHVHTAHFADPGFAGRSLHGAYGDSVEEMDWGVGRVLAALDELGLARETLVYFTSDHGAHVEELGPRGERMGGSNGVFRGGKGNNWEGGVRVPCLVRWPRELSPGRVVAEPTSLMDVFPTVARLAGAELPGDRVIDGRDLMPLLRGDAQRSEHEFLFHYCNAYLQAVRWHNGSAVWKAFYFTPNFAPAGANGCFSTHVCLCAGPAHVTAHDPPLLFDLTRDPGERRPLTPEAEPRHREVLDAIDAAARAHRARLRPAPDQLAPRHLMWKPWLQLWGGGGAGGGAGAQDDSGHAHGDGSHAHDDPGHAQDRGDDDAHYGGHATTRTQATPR
# Method: (§1) Ovariectomised, athymic female MF-1 nude mice (nu/nu) (age 6-8 weeks) were obtained from Harlan Olac. Twenty four hours before the inoculation of MCF-7STS cells animals were injected s.c. with estradiol sulphate (E2S). On the day of inoculation 5×10^6 MCF-7STS cells (50 μl in Matrigel) were injected s.c. into the right flank of the mice. After cell inoculation mice were injected with E2S (100 μg/50 μl) and received another injection of these steroids 24 h later. Mice then received E2S 3 times per week until the end of the study. When tumours had reached approximately 80 mm^3 dosing was initiated with compounds being administered orally (100 μl; vehicle 10% THF: 90% propylene glycol) at 1 mg/kg. Tumour measurements and the weight of animals were recorded weekly. Samples of tumour and liver tissues together with blood were collected at a number of time points after the cessation of dosing.
# Samples of tumour or liver tissues were homogenised in phosphate buffered saline (pH 7.4 containing 250 mM sucrose). Duplicate aliquots were incubated for 4 h with [^3H-E1S] […] An aliquot of the toluene was removed and the ^3H and ^14C radioactivity measured by liquid scintillation spectrometry. The mass of oestrone sulphate hydrolysed was calculated form the ^3H counts detected, corrected for procedural losses.
# [8] = Plasma oestradiol concentrations by radioimmunoassay; assay type: in vivo, mice; settings: Study 2: once weekly dosing, extended period after cessation of dosing
# Method: as §1
# Plasma oestradiol concentrations were measured by a specific radioimmunoassay procedure.
structure (smiles),measurement,setting,value
"C[C@]12CC[C@@H]3c4ccc(OS(N)(=O)=O)cc4CC[C@H]3[C@@H]1CCC2=O [EMATE, estrone-3-O-sulfamate]",inhibition of E1-STS activity,E1-STS [1],more than 99%
same,inhibition of rat liver E1-STS activity,E1-STS [2],99%
same,inhibition of rat liver DHA-STS activity,[3],99%
same,oral uterotrophic activity relative to oestradiol,[4],100 times
CCCN1C(=O)CC2C3CCc4cc(OS(N)(=O)=O)ccc4C3CC[C@]2(C)C1=O (some centres unmarked) [STX213],IC50,steroid sulphatase (STS),0.18 nM
same,STS activity recovered,STS [5],69%
same,inhibition of STS activity,STS [5],31%
NS(=O)(=O)Oc1ccc2c3c(c(=O)oc2c1)CCCCC3 [STX64],tumour growth,[6],ineffective
same,reduction of liver STS activity,STS [7],25-50%
"C[C@]12CCC3c4ccc(OS(N)(=O)=O)cc4CCC3C1CC(=O)N(CCC(F)(F)F)C2=O (some centres unmarked) [STX1938, 3-Sulfomoyloxy-N-(3,3,3-trifluoropropyl)-16,17-seco-Estra-1,3,5(10)-triene-16,17-imide]",inhibition of liver STS,STS [7],almost complete inhibition
same,plasma oestradiol levels,[8],significantly reduced
